This is an account of results in ChEMBL document CHEMBL1130846, “A new class of sulfoxide surfactants derived from Tris. Synthesis and preliminary assessments of their properties” (Bioorg Med Chem Lett, 1998).

A short description of data set [1]: Water solubility was evaluated. The format is ADME. Particulars: read-out: Ws.
Data set [2] is filed under the species Rattus norvegicus. Briefly: Compound was evaluated for the amount of protein solubilized, expressed as percentage weight of freeze-dried nuclear membrane (100 mg) of rat liver. The format is functional.
The species entered for data set [3] is Rattus norvegicus. Briefly: Compound was evaluated for the amount of protein solubilized, expressed as percentage weight of freeze-dried mitochondria (20 mg) of rat liver. Format: functional, organism-based.
The species entered for data set [4] is Rattus norvegicus. Briefly: Compound was evaluated for the amount of protein solubilized, expressed as percentage weight of freeze-dried microsomes (20 mg) of rat liver. The format is functional.

≈ marks a conversion by molar mass, not a printed value.

In the case of `CCCCCCCC[S+]([O-])CCC(=O)NC(CO)(CO)CO` (configuration not stated), the solubility in data set [1] was above 10000 µg/mL. Further, the Weight turned out to be 55.5% in the data set filed under Rattus norvegicus [2], 69.8% in the data set listed under Rattus norvegicus [3] and 71% in the data set filed under Rattus norvegicus [4].

Turning to `CCCCCCCCCCCC[S+]([O-])CCC(=O)NC(CO)(CO)CO[C@@H]1O[C@H](CO)[C@H](O)[C@H](O)[C@H]1O` (some centres not stated), in data set [1], the solubility is above 10000 µg/mL.

`O=C(CC[S+]([O-])CCC(F)(F)C(F)(F)C(F)(F)C(F)(F)C(F)(F)C(F)(F)F)NC(CO)(CO)CO` (configuration not stated): in data set [1], the solubility came out at 1200 µg/mL (≈ 2100 µM). In addition, the Weight was 25.5% in the data set filed under Rattus norvegicus [2], 30.3% in the data set filed under Rattus norvegicus [3] and 32.6% in the data set filed under Rattus norvegicus [4].

Turning to `CCCCCCCCCC[S+]([O-])CCC(=O)NC(CO)(CO)CO` (configuration not stated), the solubility in data set [1] is above 10000 µg/mL. Further, the Weight in the data set listed under Rattus norvegicus [2] was 57.4%; in the data set filed under Rattus norvegicus [3], 71%; in the data set listed under Rattus norvegicus [4], 68.9%.

For `O=C(CC[S+]([O-])CCC(F)(F)C(F)(F)C(F)(F)C(F)(F)C(F)(F)C(F)(F)C(F)(F)C(F)(F)F)NC(CO)(CO)COC1O[C@H](CO)[C@H](O)[C@H](O)[C@H]1O` (some centres not stated), the solubility in data set [1] was above 1500 µg/mL.

With `O=C(CC[S+]([O-])CCC(F)(F)C(F)(F)C(F)(F)C(F)(F)C(F)(F)C(F)(F)C(F)(F)C(F)(F)F)NC(CO)(CO)CO` (configuration not stated), the solubility in data set [1] amounted to 25 µg/mL (≈ 37.2 µM).

Turning to `CCCCCCCCCCCC[S+]([O-])CCC(=O)NC(CO)(CO)CO` (configuration not stated), in data set [1], the solubility is above 6000 µg/mL. For the same compound, the Weight in the data set listed under Rattus norvegicus [2] came to 52.4%; in the data set listed under Rattus norvegicus [3] it was 65.6%; in the data set filed under Rattus norvegicus [4], 62.5%.

Regarding `O=C(CC[S+]([O-])CCC(F)(F)C(F)(F)C(F)(F)C(F)(F)C(F)(F)C(F)(F)F)NC(CO[C@H]1O[C@@H](CO)[C@@H](O)[C@@H](O)[C@@H]1O)(CO[C@@H]1O[C@H](CO)[C@H](O)[C@H](O)[C@H]1O)CO[C@@H]1O[C@H](CO)[C@H](O)[C@H](O)[C@H]1O` (some centres not stated), the solubility in data set [1] was above 10000 µg/mL.

On to `CC(C)(C)CC(C)(C)c1ccc(OCCO)cc1`, for which the figures for the Weight in the data set listed under Rattus norvegicus [2], in the data set listed under Rattus norvegicus [3] and in the data set listed under Rattus norvegicus [4] were 62.2%, 74.9% and 76.2%, respectively.

Consider `CCCCCCCCCCCCCCCC[S+]([O-])CCC(=O)NC(CO)(CO)CO` (configuration not stated), for which the solubility in data set [1] stood at 85 µg/mL (≈ 189 µM). Further, the results for the Weight in the data set listed under Rattus norvegicus [2], in the data set filed under Rattus norvegicus [3] and in the data set listed under Rattus norvegicus [4] were 45.7%, 58.6% and 58.4%, respectively.
